Assay results from patent publication US8207206B2, “(S,R)-3-phenyl-4,5 dihydro-5-isoxazole acetic acid-nitric oxide and use thereof as anti-cancer and antiviral agent” (OncoNOx APS, priority 2007, dated 2012).

What was measured:
C6 cells [1] = assay: Nitrite accumulation (Griess reaction); type: cell-based, rat; conditions: 24 h
Procedure: Nitrite accumulation was measured by Griess reaction as previously described (Mijatovic et al CMLS 2004).

B16 cells [2] = assay: LDH release assay (cell death); type: cell-based, mouse; conditions: B16, dose-dependent (24 h) and time-dependent (25 μg/ml), significant after 18 h
Procedure: As a marker of necrotic cell death, the release of intracellular enzyme LDH, which mediates the conversion 2,4-dinitrophenylhydrazine into visible hydrazone precipitate in the presence of pyruvate, was measured. […] The percentage of dead cells was determined using the following formula: [(E−C)/(T−C)]×100, wherein E is the experimental absorbance of treated cultures measured at 492 nm, C is the absorbance of supernatants of control untreated cells, and T is the absorbance corresponding to the maximal (100%) LDH release of Triton-lysed cells. Cell cycle analysis and apoptosis detection were carried out exactly as described in the literature (Mijatovic CMLS 2005). Acidic vesicular organelles, which characterise autophagy, are stained by vital dye acridin orange. The intensity of red fluorescence is proportional to the acidity and volume of the organelles, while the cytoplasm and nucleolus emits bright green and dim red (Kanzawa 2004). For the detection of autophagy the cells were cultivated in 6-well plates as previously described, detached and stained with 1 μg/ml acridin orange for 15 min at RT. At the end of the incubation period the cells were washed and finally resuspended in PBS. Green (510-530 nm) and red (>650 nm) fluorescence emission from 10^4 cells illuminated with blue (488 nm) excitation light was measured with a FACS Calibur and analyzed using CellQuest software.

L929 cells [3] = assay: LDH release assay (cell death); type: cell-based, mouse; conditions: L929, dose-dependent (24 h) and time-dependent (25 μg/ml), significant after 18 h
Procedure: (§1) As a marker of necrotic cell death, the release of intracellular enzyme LDH, which mediates the conversion 2,4-dinitrophenylhydrazine into visible hydrazone precipitate in the presence of pyruvate, was measured. The cells were seeded in flat-bottom 96-well plates as indicated above and the assay was performed after 24 h incubation, as previously described (Decker et al). The percentage of dead cells was determined using the following formula: [(E−C)/(T−C)]×100, wherein E is the experimental absorbance of treated cultures measured at 492 nm, C is the absorbance of supernatants of control untreated cells, and T is the absorbance corresponding to the maximal (100%) LDH release of Triton-lysed cells. Cell cycle analysis and apoptosis detection were carried out exactly as described in the literature (Mijatovic CMLS 2005). Acidic vesicular organelles, which characterise autophagy, are stained by vital dye acridin orange. The intensity of red fluorescence is proportional to the acidity and volume of the organelles, while the cytoplasm and nucleolus emits bright green and dim red (Kanzawa 2004). […] Green (510-530 nm) and red (>650 nm) fluorescence emission from 10^4 cells illuminated with blue (488 nm) excitation light was measured with a FACS Calibur and analyzed using CellQuest software.

B16 cells [4] = assay: Cell cycle analysis and apoptosis detection (PI staining, flow cytometry); type: cell-based, mouse; conditions: B16, 25 μg/ml, 24 h
Procedure: as §1

L929 cells [5] = assay: as above; type: cell-based, mouse; conditions: L929, 25 μg/ml, 24 h
Procedure: as §1

C6 cells [6] = assay: Autophagy detection by acridin orange staining (flow cytometry); type: cell-based, rat; conditions: C6, 25 μg/ml, 24 h
Procedure: as §1

B16 cells [7] = assay: as above; type: cell-based, mouse; conditions: B16, 25 μg/ml, 24 h
Procedure: as §1

[8] = tested on: MAP kinases (p38 MAPK, ERK, JNK) in C6 cells; assay: Cell-based ELISA for activation of MAP kinases; design: species or system rat; conditions: C6, 25 μg/ml, time course
Procedure: (§2) Activation of MAP kinases (p38 MAPK, extracellular signal-regulated kinase—ERK, and Jun-N-terminal kinase—JNK) or nuclear factor-κB (NF-κB) was determined by means of a slightly modified method of cell-based ELISA by Versteeg et al. (Versteeg 2000). Since MAP kinases are activated by phosphorylation, and phosphorylation of the inhibitory subunit IκB is a necessary step for NF-κB activation, we used antibodies specific for phosphorylated forms of MAP kinases (p-p38, p-ERK and p-JNK) and IκB (p-IκB). The cells were grown overnight in 96-well flat-bottom plates in a culture medium containing 0.5% FCS and then treated with the test compound diluted in conventional culture medium. At the end of treatment period the cells were fixed in 4% parformaldehyde, endogenous peroxydase was quenched with 1% H2O2 in PBS containing 0.1% Triton X-100 (PBST), and unspecific binding of antibodies was blocked with a PBST solution containing 10% FCS. Primary mouse monoclonal antibodies specific for rat/mouse p-ERK, p-p38, p-JNK, p-IκB (1:200; all from Santa Cruz Biotechnology, Santa Cruz, Calif.) were applied in PBST supplemented with 2% bovine serum albumine (PBSTB), followed by secondary peroxidase-conjugated goat anti-mouse IgG (1:2500 in PBSTB; USB corporation, Cleveland, Ohio) for anti-p-ERK, anti-p-JNK and anti-p-IκB, or anti-mouse IgM (1:4000; USB corporation) for detection of anti-p-p38. Incubation with antibodies was carried out at 37° C. for 1 h. After 15 min incubation with peroxydase substrate TMB and subsequent addition of 0.1 M HCl, the absorbance at 450 nm was measured in an automated microplate reader. To enable comparison between treatment and control, the resulting absorbances were corrected for the cell number determined by crystal violet staining, as described in the original protocol. The results are presented as relative expression in comparison with the control value, which was arbitrarily set to 1.

[9] = tested on: MAP kinases (p38 MAPK, ERK, JNK) in B16 cells; assay: Cell-based ELISA for activation of MAP kinases; design: species or system mouse; conditions: B16, 25 μg/ml, time course
Procedure: as §2

[10] = tested on: MAP kinases (p38 MAPK, ERK, JNK) in L929 cells; assay: Cell-based ELISA for activation of MAP kinases; design: species or system mouse; conditions: L929, 25 μg/ml, time course
Procedure: as §2

Q: What does the source list for `N#Cc1c(COC(=O)CC2CC(c3ccccc3)=NO2)no[n+]1[O-]` (racemic) [GIT27-NO, (S,R)-3-phenyl-4,5 dihydro-5-isoxazole acetic acid-nitric oxide]?
A: accumulation of nitrites (NO release) in culture media alone (C6 cells [1]; in the absence of cells): failed to release NO and to form nitrites; accumulation of nitrites in cell culture supernatants (C6 cells [1]; in the presence of C6 cells): significant amount of nitrites; LDH release (B16 cells [2]): induced LDH release; LDH release (L929 cells [3]): induced LDH release; percentage of cells in subG compartment (hypodiploid cells) (B16 cells [4]): < 10%; proportion of hypodiploid cells (subG compartment) (L929 cells [5]): significantly increased proportion of hypodiploid cells; acidic autophagic vesicles (red fluorescence of acridin orange) (C6 cells [6]): significantly increased the intensity of bright red fluorescence; acidic autophagic vesicles (red fluorescence of acridin orange) (B16 cells [7]): significantly increased the intensity of bright red fluorescence; activation of ERK1/2 [8]: permanent activation; activation of JNK [8]: permanent activation; activity of p38 [8]: not affected; activation of ERK1/2 [9]: did not affect the activation; activation of JNK [9]: significant time-dependent activation; activation of p38 [9]: only slight activation; activation of ERK1/2 [10]: marked and sustained activation; activation of p38 [10]: significant transient activation; expression (activation) of JNK [10]: without affecting the expression
